Source: patent US20250368649A1, “TETRAHYDROPYRIDOPYRIMIDINE PAN-KRAS INHIBITORS” (Mirati Therapeutics, Inc., priority 2022, published 2025)

How the values were obtained:
KRas G12A = KRas G12A (Homo sapiens, UniProt P01116, G12A); format: binding; conditions: TR-FRET displacement, read-out: Binding to KRas (IC50 nM) G12A
KRas G12V = KRas G12V (Homo sapiens, UniProt P01116, G12V); experiment: biochemical; conditions: Binding to KRas (IC50 nM) G12V, TR-FRET displacement, KRas G12V
KRas WT = KRas WT (Homo sapiens, UniProt P01116); experiment: KRas binding assay (TR-FRET displacement), KRas WT; conditions: TR-FRET displacement
Sequence of KRas WT (P01116 1-169 isoform P01116-2): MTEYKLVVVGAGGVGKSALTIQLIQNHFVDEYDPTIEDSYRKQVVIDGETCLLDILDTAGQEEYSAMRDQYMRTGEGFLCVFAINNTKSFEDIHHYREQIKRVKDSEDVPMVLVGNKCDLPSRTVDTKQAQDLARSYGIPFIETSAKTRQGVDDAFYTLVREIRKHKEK

KRas G12D = KRas G12D (Homo sapiens, UniProt P01116, G12D); experiment: biochemical; conditions: Binding to KRas (IC50 nM) G12D, TR-FRET displacement, KRas G12D
Sequence of KRas G12D (P01116 1-169 isoform P01116-2 G12D): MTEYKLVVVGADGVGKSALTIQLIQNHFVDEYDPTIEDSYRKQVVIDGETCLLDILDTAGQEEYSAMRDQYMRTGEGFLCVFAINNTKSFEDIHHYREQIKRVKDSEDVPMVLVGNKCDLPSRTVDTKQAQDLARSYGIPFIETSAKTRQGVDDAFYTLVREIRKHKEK

KRas G12C = KRas G12C (Homo sapiens, UniProt P01116, G12C); format: binding; conditions: TR-FRET displacement, read-out: Binding to KRas (IC50 nM) G12C
Sequence of KRas G12C (P01116 1-169 isoform P01116-2 G12C): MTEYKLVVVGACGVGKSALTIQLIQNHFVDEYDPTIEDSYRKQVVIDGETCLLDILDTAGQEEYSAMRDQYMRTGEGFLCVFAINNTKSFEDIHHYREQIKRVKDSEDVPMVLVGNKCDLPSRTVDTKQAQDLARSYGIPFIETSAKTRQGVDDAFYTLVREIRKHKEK

KRas Q61H = KRas Q61H (Homo sapiens, UniProt P01116, Q61H); experiment: KRas binding assay (TR-FRET displacement), KRas Q61H; conditions: TR-FRET displacement
Sequence of KRas Q61H (P01116 1-169 isoform P01116-2 Q61H): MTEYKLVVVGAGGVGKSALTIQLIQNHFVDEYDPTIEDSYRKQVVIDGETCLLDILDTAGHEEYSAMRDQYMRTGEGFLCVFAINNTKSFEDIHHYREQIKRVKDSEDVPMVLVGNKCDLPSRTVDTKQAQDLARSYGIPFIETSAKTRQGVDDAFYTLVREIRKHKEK

KRas G12S = KRas G12S (Homo sapiens, UniProt P01116, G12S); format: binding; conditions: TR-FRET displacement, read-out: Binding to KRas (IC50 nM) G12S
Sequence of KRas G12S (P01116 1-169 isoform P01116-2 G12S): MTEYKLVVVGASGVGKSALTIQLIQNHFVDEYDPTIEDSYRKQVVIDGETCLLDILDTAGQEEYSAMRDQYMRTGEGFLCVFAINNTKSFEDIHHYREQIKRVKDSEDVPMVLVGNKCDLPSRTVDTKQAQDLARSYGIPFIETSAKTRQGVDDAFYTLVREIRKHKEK

KRas G13D = KRas G13D (Homo sapiens, UniProt P01116, G13D); format: binding; conditions: TR-FRET displacement, read-out: Binding to KRas (IC50 nM) G13D
Sequence of KRas G13D (P01116 1-169 isoform P01116-2 G13D): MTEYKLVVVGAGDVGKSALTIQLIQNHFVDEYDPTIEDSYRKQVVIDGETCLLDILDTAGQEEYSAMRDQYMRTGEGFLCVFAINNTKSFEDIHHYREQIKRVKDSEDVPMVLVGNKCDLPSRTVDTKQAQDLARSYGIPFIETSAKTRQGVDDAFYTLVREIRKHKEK

Sequence of KRas G12V (P01116 1-169 isoform P01116-2 G12V): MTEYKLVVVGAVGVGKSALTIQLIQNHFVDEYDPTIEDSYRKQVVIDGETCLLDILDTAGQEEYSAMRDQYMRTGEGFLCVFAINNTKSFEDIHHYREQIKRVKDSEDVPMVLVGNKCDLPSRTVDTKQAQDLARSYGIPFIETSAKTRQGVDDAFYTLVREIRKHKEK
Sequence of KRas G12A (P01116 1-169 isoform P01116-2 G12A): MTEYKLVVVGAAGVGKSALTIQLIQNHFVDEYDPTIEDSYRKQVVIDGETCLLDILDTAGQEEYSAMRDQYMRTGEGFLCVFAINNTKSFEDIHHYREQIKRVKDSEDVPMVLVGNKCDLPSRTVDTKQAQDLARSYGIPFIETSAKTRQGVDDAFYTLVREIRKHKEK

SMILES | IC50 (KRas G12A) | IC50 (KRas G12V) | IC50 (KRas WT) | IC50 (KRas G12D) | IC50 (KRas G12C) | IC50 (KRas Q61H) | IC50 (KRas G12S) | IC50 (KRas G13D)
CCc1cccc2cccc(N3CCc4c(nc(OCC5(CN(C)C)CC5)nc4NCc4nnnn4C4CCC4)C3)c12 [Example 533, N-((1-cyclobutyl-1H-tetrazol-5-yl)methyl)-2-((1-((dimethylamino)methyl)cyclopropyl)methoxy)-7-(8-ethylnaphthalen-1-yl)-5,6,7,8-tetrahydropyrido[3,4-d]pyrimidin-4-amine] | 5970 nM | 2680 nM | 7620 nM | 7360 nM | 3860 nM | 9980 nM | 4920 nM | 12300 nM
CCc1cccc2cccc(N3CCc4c(nc(OCC5(CN(C)C)CC5)nc4N4Cc5cn[nH]c5CC(C)C4)C3)c12 (stereo not drawn) [Example 534, 1-(1-(((7-(8-ethylnaphthalen-1-yl)-4-(7-methyl-4,6,7,8-tetrahydropyrazolo[4,3-c]azepin-5(1H)-yl)-5,6,7,8-tetrahydropyrido[3,4-d]pyrimidin-2-yl)oxy)methyl)cyclopropyl)-N,N-dimethylmethanamine] | 9380 nM | 3540 nM | 12100 nM | 7370 nM | 4900 nM | 14600 nM | 9330 nM | 18200 nM
CCc1cccc2cccc(N3CCc4c(nc(OCC5(CN(C)C)CC5)nc4N4CCCC(n5ccc(C)n5)C4)C3)c12 (stereo not drawn) [Example 535, 1-(1-(((7-(8-ethylnaphthalen-1-yl)-4-(3-(3-methyl-1H-pyrazol-1-yl)piperidin-1-yl)-5,6,7,8-tetrahydropyrido[3,4-d]pyrimidin-2-yl)oxy)methyl)cyclopropyl)-N,N-dimethylmethanamine] | 2980 nM | 4710 nM | 5320 nM | 7570 nM | 1830 nM | 6460 nM | 5060 nM | 6190 nM
CCc1cccc2cccc(N3CCc4c(nc(OCC5(CN(C)C)CC5)nc4N4CCN(C(=O)c5c[nH]c(=O)[nH]5)CC4)C3)c12 [Example 536, 4-(4-(2-((1-((dimethylamino)methyl)cyclopropyl)methoxy)-7-(8-ethylnaphthalen-1-yl)-5,6,7,8-tetrahydropyrido[3,4-d]pyrimidin-4-yl)piperazine-1-carbonyl)-1,3-dihydro-2H-imidazol-2-one] | 4690 nM | 3020 nM | 3050 nM | 7950 nM | 4650 nM | 2170 nM | 7720 nM | 3080 nM
CCc1cccc2cccc(N3CCc4c(nc(OCC5(CN(C)C)CC5)nc4N(C)Cc4nnnn4C)C3)c12 [Example 537, 2-((1-((dimethylamino)methyl)cyclopropyl)methoxy)-7-(8-ethylnaphthalen-1-yl)-N-methyl-N-((1-methyl-1H-tetrazol-5-yl)methyl)-5,6,7,8-tetrahydropyrido[3,4-d]pyrimidin-4-amine] | 43500 nM | 3180 nM | 26700 nM | 8520 nM | 3700 nM | > 100000 nM | 5660 nM | > 100000 nM
CCc1cccc2cccc(N3CCc4c(nc(OCC5(CN(C)C)CC5)nc4N(C)Cc4nnc5n4CCOC5)C3)c12 [Example 538, N-((5,6-dihydro-8H-[1,2,4]triazolo[3,4-c][1,4]oxazin-3-yl)methyl)-2-((1-((dimethylamino)methyl)cyclopropyl)methoxy)-7-(8-ethylnaphthalen-1-yl)-N-methyl-5,6,7,8-tetrahydropyrido[3,4-d]pyrimidin-4-amine] | 2530 nM | 1860 nM | 3000 nM | 9040 nM | 1330 nM | 4350 nM | 2780 nM | 4360 nM
CCc1cccc2cccc(N3CCc4c(nc(OCC5(CN(C)C)CC5)nc4NCc4cc(CO)[nH]n4)C3)c12 [Example 539, (3-(((2-((1-((dimethylamino)methyl)cyclopropyl)methoxy)-7-(8-ethylnaphthalen-1-yl)-5,6,7,8-tetrahydropyrido[3,4-d]pyrimidin-4-yl)amino)methyl)-1H-pyrazol-5-yl)methanol] | 17100 nM | 5880 nM | 19900 nM | 9320 nM | 8970 nM | 41300 nM | 20700 nM | 42200 nM
CCc1cccc2cccc(N3CCc4c(nc(OCC5(CN(C)C)CC5)nc4N4CC(CO)OC(C(F)(F)F)C4)C3)c12 (stereo not drawn) [Example 540, (4-(2-((1-((dimethylamino)methyl)cyclopropyl)methoxy)-7-(8-ethylnaphthalen-1-yl)-5,6,7,8-tetrahydropyrido[3,4-d]pyrimidin-4-yl)-6-(trifluoromethyl)morpholin-2-yl)methanol] | 3280 nM | 1720 nM | 5810 nM | 9350 nM | 1840 nM | 7730 nM | 3750 nM | 8850 nM
CCc1cccc2cccc(N3CCc4c(nc(OCC5(CN(C)C)CC5)nc4NCc4ccnn4C4CC4(F)F)C3)c12 (stereo not drawn) [Example 541, N-((1-(2,2-difluorocyclopropyl)-1H-pyrazol-5-yl)methyl)-2-((1-((dimethylamino)methyl)cyclopropyl)methoxy)-7-(8-ethylnaphthalen-1-yl)-5,6,7,8-tetrahydropyrido[3,4-d]pyrimidin-4-amine] | 259 nM | 5980 nM | 256 nM | 10000 nM | 165 nM | 298 nM | 169 nM | 200 nM
CCc1cccc2cccc(N3CCc4c(nc(OCC5(CN(C)C)CC5)nc4NC4CCCc5[nH]ncc54)C3)c12 (stereo not drawn) [Example 542, 2-((1-((dimethylamino)methyl)cyclopropyl)methoxy)-7-(8-ethylnaphthalen-1-yl)-N-(4,5,6,7-tetrahydro-1H-indazol-4-yl)-5,6,7,8-tetrahydropyrido[3,4-d]pyrimidin-4-amine] | 5740 nM | 5370 nM | 10400 nM | 11600 nM | 2890 nM | 18300 nM | 5830 nM | 15800 nM
CCc1cccc2cccc(N3CCc4c(nc(OCC5(CN(C)C)CC5)nc4N4CCC(F)C(OC)C4)C3)c12 (stereo not drawn) [Example 543, 1-(1-(((7-(8-ethylnaphthalen-1-yl)-4-(4-fluoro-3-methoxypiperidin-1-yl)-5,6,7,8-tetrahydropyrido[3,4-d]pyrimidin-2-yl)oxy)methyl)cyclopropyl)-N,N-dimethylmethanamine] | 1200 nM | 3940 nM | 1500 nM | 12100 nM | 634 nM | 2400 nM | 750 nM | 2270 nM
CCc1cccc2cccc(N3CCc4c(nc(OCC5(CN(C)C)CC5)nc4N4CCOC(C(F)F)CC4)C3)c12 (stereo not drawn) [Example 544, 1-(1-(((4-(7-(difluoromethyl)-1,4-oxazepan-4-yl)-7-(8-ethylnaphthalen-1-yl)-5,6,7,8-tetrahydropyrido[3,4-d]pyrimidin-2-yl)oxy)methyl)cyclopropyl)-N,N-dimethylmethanamine] | 291 nM | 14500 nM | 327 nM | 21100 nM | 180 nM | 121 nM | 204 nM | 112 nM
